Experimental data from PubChem BioAssay (NCI).
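The compound was tested at five concentrations on cells cultured in 96-well plates, with a 48-hour exposure period. At the TGI there is no net growth.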

Legend:
Test in all cases: growth of human tumour cells (NCI), 48 h
RXF 393 renal = system: RXF 393 renal
HT29 colon = system: HT29 colon
HCT-116 colon = system: HCT-116 colon
SK-MEL-5 melanoma = system: SK-MEL-5 melanoma
MALME-3M melanoma = system: MALME-3M melanoma
SK-MEL-28 melanoma = system: SK-MEL-28 melanoma
SNB-78 CNS = system: SNB-78 CNS
UO-31 renal = system: UO-31 renal
NCI-H226 lung = system: NCI-H226 lung
SF-295 CNS = system: SF-295 CNS
DMS 273 small cell lung = system: DMS 273 small cell lung
M14 melanoma = system: M14 melanoma
OVCAR-5 ovarian = system: OVCAR-5 ovarian
OVCAR-8 ovarian = system: OVCAR-8 ovarian
MOLT-4 leukemia = system: MOLT-4 leukemia
UACC-62 melanoma = system: UACC-62 melanoma
A549 NSCLC = system: A549 NSCLC
XF 498 CNS = system: XF 498 CNS
SN12C renal = system: SN12C renal
NCI-H460 lung = system: NCI-H460 lung
UACC-257 melanoma = system: UACC-257 melanoma
SF-539 CNS = system: SF-539 CNS
SK-MEL-2 melanoma = system: SK-MEL-2 melanoma
SNB-19 CNS = system: SNB-19 CNS
SK-OV-3 ovarian = system: SK-OV-3 ovarian
TK-10 renal = system: TK-10 renal
M19-MEL melanoma = system: M19-MEL melanoma
CAKI-1 renal = system: CAKI-1 renal
HCT-15 colon = system: HCT-15 colon
OVCAR-4 ovarian = system: OVCAR-4 ovarian
786-0 renal = system: 786-0 renal
LXFL 529 NSCLC = system: LXFL 529 NSCLC
DLD-1 colon = system: DLD-1 colon
SNB-75 CNS = system: SNB-75 CNS
COLO 205 colon = system: COLO 205 colon
IGROV1 ovarian = system: IGROV1 ovarian
HOP-18 NSCLC = system: HOP-18 NSCLC
OVCAR-3 ovarian = system: OVCAR-3 ovarian
K-562 leukemia = system: K-562 leukemia
SW-620 colon = system: SW-620 colon
KM20L2 colon = system: KM20L2 colon
EKVX NSCLC = system: EKVX NSCLC
KM12 colon = system: KM12 colon
SR leukemia = system: SR leukemia
ACHN renal = system: ACHN renal
U251 CNS = system: U251 CNS
RPMI-8226 leukemia = system: RPMI-8226 leukemia
NCI-H23 lung = system: NCI-H23 lung

Measured: TGI

C[N+](C)(C)CC1CCCC(C[N+](C)(C)C)C1=NO (stereo not drawn)
> 100 µM: RXF 393 renal | HT29 colon | HCT-116 colon | SK-MEL-5 melanoma | MALME-3M melanoma | SK-MEL-28 melanoma | SNB-78 CNS | UO-31 renal | NCI-H226 lung | SF-295 CNS | DMS 273 small cell lung | M14 melanoma | OVCAR-5 ovarian | OVCAR-8 ovarian | MOLT-4 leukemia | UACC-62 melanoma | A549 NSCLC | XF 498 CNS | SN12C renal | NCI-H460 lung | UACC-257 melanoma | SF-539 CNS | SK-MEL-2 melanoma | SNB-19 CNS | SK-OV-3 ovarian | TK-10 renal | M19-MEL melanoma | CAKI-1 renal | HCT-15 colon | OVCAR-4 ovarian | 786-0 renal | LXFL 529 NSCLC | DLD-1 colon | SNB-75 CNS | COLO 205 colon | IGROV1 ovarian | HOP-18 NSCLC | OVCAR-3 ovarian | K-562 leukemia | SW-620 colon | KM20L2 colon | EKVX NSCLC | KM12 colon | SR leukemia | ACHN renal | U251 CNS | RPMI-8226 leukemia | NCI-H23 lung
